Laboratory results taken from ChEMBL document CHEMBL5126595, “Identification and anti-tumor evaluation of 3-acyl-indol-based 2,4-diarylaminopyrimidine analogues as potent ALK inhibitors capable of overcoming drug-resistant mutants” (Eur J Med Chem, 2022).
Calls of active or inactive are those of the source. The calls are words filed in the database; no cut-off is given here.

Columns and labels:
KARPAS-299 = assay: Antiproliferative activity against NPM-ALK positive human KARPAS-299 cells assessed as inhibition of cell growth incubated for 72 hrs by MTT assay; format: functional, cell-based; conditions: KARPAS-299, 72 h
NCI-H2228 [1] = assay: Antiproliferative activity against EML4-ALK positive human NCI-H2228 cells assessed as inhibition of cell growth incubated for 72 hrs by MTT assay; format: functional, cell-based; conditions: NCI-H2228, 72 h
[2] = target: T1, ALK tyrosine kinase receptor (Homo sapiens, UniProt Q9UM73); assay: Inhibition of N-terminal GST-tagged human wild type ALK (1058 to 1620 residues) cytoplasmic domain expressed in baculovirus infected Sf21 cells incubated for 1 hrs in the presence of ATP by mobility shift assay
Target sequence in this assay (Q9UM73 whole entry, the tested form may be a part): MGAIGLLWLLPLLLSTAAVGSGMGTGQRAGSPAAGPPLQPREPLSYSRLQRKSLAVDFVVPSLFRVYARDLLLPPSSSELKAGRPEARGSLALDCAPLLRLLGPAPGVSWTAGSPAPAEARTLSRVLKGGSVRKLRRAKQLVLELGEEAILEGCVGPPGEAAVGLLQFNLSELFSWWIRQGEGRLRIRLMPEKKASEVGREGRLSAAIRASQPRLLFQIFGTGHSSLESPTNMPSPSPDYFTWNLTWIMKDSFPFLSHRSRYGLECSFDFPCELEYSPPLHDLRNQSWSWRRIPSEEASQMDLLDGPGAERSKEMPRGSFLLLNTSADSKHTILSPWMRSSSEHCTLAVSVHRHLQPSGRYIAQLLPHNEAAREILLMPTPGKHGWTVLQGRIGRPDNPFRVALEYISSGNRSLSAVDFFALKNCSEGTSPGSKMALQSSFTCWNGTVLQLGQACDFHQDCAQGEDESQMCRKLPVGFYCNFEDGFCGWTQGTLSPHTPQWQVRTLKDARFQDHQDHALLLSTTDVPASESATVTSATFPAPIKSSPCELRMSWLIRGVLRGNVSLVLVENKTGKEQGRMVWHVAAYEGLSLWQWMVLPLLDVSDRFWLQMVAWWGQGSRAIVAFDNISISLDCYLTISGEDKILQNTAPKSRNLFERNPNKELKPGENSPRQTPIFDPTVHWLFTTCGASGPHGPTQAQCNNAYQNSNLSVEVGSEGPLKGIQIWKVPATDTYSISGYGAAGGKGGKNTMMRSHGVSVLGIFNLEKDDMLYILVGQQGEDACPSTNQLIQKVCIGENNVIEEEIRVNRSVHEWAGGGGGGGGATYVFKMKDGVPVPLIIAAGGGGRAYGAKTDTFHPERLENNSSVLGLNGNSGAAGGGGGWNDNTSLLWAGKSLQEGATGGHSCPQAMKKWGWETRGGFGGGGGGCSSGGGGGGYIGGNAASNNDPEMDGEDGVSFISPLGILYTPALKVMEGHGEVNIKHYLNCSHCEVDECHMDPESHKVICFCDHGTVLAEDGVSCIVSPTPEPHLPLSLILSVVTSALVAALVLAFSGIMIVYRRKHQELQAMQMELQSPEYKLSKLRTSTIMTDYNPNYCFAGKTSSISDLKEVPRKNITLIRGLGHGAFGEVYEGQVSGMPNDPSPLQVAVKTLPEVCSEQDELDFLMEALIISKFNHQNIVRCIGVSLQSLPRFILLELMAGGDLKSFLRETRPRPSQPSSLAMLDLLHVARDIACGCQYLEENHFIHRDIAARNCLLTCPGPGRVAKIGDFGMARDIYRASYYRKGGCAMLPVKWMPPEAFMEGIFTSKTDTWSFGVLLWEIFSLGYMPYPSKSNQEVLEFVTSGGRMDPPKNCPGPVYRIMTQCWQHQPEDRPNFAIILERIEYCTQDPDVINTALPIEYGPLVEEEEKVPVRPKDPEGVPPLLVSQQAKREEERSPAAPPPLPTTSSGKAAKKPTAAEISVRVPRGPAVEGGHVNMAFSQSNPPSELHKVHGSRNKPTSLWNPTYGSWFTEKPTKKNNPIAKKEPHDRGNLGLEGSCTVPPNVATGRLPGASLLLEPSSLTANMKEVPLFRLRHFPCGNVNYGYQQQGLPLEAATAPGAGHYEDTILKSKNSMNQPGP

[3] = Antiproliferative activity […] EML4-ALK cells assessed as inhibition of cell growth incubated for 72 hrs by MTT assay; format: functional, cell-based
BaF3 = assay: Antiproliferative activity IL3 […] Ba/F3 cells assessed as inhibition of cell growth incubated for 72 hrs by MTT assay; format: functional, cell-based; conditions: Mus musculus, BaF3, 72 h
[4] = Potency index, ratio of test compound IC50 to ceritinib IC50 antiproliferative activity […] EML4-ALK-G1202R cells assessed as inhibition of cell growth incubated for 72 hrs by MTT assay; format: functional
PC-3 = assay: Antiproliferative activity against human PC-3 cells assessed as inhibition of cell growth incubated for 72 hrs by MTT assay; format: functional, cell-based; conditions: PC-3, 72 h
[5] = Antiproliferative activity against human HEK293T cells assessed as inhibition of cell growth incubated for 72 hrs by MTT assay; format: toxicity, cell-based, HEK-293T
[6] = target: T1, ALK tyrosine kinase receptor; assay: Inhibition of ALK phosphorylation in human NCI-H2228 cells measured after 24 hrs by Western blot analysis; format: cell-based; conditions: dose 25-100 nM, DDE = dose-dependent effect
Target sequence in this assay (Q9UM73 19-1620 limits assumed): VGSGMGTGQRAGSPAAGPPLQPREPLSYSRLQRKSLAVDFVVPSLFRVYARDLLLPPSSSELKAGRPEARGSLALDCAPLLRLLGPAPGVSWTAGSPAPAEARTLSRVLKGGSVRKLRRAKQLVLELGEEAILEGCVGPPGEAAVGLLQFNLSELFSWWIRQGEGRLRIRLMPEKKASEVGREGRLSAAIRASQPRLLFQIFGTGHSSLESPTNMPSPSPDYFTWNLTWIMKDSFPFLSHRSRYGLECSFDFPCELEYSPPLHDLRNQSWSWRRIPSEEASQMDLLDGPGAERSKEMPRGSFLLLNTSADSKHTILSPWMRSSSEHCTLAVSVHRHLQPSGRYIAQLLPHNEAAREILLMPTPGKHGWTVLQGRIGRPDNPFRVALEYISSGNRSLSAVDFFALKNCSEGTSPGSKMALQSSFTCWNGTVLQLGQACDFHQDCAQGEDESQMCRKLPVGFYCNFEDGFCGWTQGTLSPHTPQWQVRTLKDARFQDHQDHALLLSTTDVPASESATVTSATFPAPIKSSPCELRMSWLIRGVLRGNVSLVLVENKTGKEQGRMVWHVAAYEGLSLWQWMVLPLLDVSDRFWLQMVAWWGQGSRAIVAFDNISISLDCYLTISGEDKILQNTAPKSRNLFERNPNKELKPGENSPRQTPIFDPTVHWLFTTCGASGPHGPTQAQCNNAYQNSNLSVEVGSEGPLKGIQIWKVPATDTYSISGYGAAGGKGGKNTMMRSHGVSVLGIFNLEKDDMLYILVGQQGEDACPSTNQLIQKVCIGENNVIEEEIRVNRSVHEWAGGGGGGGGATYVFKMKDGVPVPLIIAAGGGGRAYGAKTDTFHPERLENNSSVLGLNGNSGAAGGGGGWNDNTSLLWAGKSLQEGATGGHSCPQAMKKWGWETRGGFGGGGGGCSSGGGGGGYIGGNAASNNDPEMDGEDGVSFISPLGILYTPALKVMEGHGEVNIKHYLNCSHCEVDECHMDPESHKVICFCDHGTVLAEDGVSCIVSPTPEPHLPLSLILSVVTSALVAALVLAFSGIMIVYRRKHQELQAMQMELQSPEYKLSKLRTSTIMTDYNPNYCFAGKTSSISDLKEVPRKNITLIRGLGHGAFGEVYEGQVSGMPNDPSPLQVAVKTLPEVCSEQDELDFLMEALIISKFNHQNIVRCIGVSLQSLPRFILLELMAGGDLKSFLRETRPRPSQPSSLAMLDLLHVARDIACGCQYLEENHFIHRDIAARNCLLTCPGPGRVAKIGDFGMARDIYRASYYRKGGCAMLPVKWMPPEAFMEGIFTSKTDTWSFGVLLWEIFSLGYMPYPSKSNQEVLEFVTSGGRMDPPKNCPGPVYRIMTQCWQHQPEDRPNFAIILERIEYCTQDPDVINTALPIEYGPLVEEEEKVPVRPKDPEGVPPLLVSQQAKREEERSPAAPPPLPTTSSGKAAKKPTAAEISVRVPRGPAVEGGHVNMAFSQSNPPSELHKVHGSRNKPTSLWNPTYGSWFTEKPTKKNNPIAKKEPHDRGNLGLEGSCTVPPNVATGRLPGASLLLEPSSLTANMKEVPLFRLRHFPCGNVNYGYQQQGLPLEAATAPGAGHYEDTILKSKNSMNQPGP

[7] = target: T1, ALK tyrosine kinase receptor; assay: Inhibition of ALK downstream signalling in human NCI-H2228 cells assessed as reduction in phosphorylated ERK level measured after 24 hrs by Western blot analysis; format: cell-based; conditions: dose 25-100 nM, DDE = dose-dependent effect
Target sequence in this assay (Q9UM73 19-1620 limits assumed): as above

NCI-H2228 [8] = assay: Inhibition of colony formation in human NCI-H2228 cells assessed as reduction in colony area incubated for 3 day by crystal violet staining based assay; format: functional, cell-based; conditions: dose 25-100 nM, DDE = dose-dependent effect
NCI-H2228 [9] = assay: Inhibition of colony formation in human NCI-H2228 cells assessed as reduction in colony area at 100 nM incubated for 3 day by crystal violet staining based assay; format: functional; conditions: NCI-H2228, 72 h
NCI-H2228 [10] = assay: Inhibition of cell migration in human NCI-H2228 cells at 2.5 to 10 nM by inverted microscopic based cell scratch assay; format: functional; conditions: dose 2.5-10 nM, time 24-48 hrs, TDE = time-dependent effect
NCI-H2228 [11] = assay: Inhibition of cell migration in human NCI-H2228 cells at 10 nM measured at 48 hrs by inverted microscopic based cell scratch assay relative to control; format: functional
NCI-H2228 [12] = assay: Induction of apoptosis in human NCI-H2228 cells assessed as solidified nuclei at 25 to 100 nM incubated for 48 hrs by Hoechst 33342 staining based fluorescence microscopic analysis; format: functional, cell-based; conditions: dose 25-100 nM
NCI-H2228 [13] = assay: Induction of apoptosis in human NCI-H2228 cells assessed as ruptured nuclei at 25 to 100 nM incubated for 48 hrs by Hoechst 33342 staining based fluorescence microscopic analysis; format: functional, cell-based; conditions: dose 25-100 nM
NCI-H2228 [14] = assay: Induction of apoptosis in human NCI-H2228 cells assessed as appearance of apoptotic bodies at 25 to 100 nM incubated for 48 hrs by Hoechst 33342 staining based fluorescence microscopic analysis; format: functional, cell-based; conditions: dose 25-100 nM
NCI-H2228 [15] = assay: Induction of apoptosis in human NCI-H2228 cells assessed as viable cells at 100 nM incubated for 48 hrs by AnnexinV-FITC/propidium iodide staining based flow cytometry analysis (reference value: 92.3 %); format: functional; conditions: read-out: Activity
NCI-H2228 [16] = assay: Induction of apoptosis in human NCI-H2228 cells assessed as necrotic cells at 100 nM incubated for 48 hrs by AnnexinV-FITC/propidium iodide staining based flow cytometry analysis (reference value: 0.55 %); format: functional
NCI-H2228 [17] = assay: Induction of apoptosis in human NCI-H2228 cells assessed as total apoptotic cells at 25 nM incubated for 48 hrs by AnnexinV-FITC/propidium iodide staining based flow cytometry analysis; format: functional
NCI-H2228 [18] = assay: Induction of cell cycle arrest in human NCI-H2228 cells assessed as increase in G1 phase cells at 25 nM incubated for 48 hrs by PI/RNase staining based flow cytometry analysis (reference value: 49.72 %); format: functional
NCI-H2228 [19] = assay: Induction of cell cycle arrest in human NCI-H2228 cells assessed as decrease in G2 phase cells at 25 nM incubated for 48 hrs by PI/RNase staining based flow cytometry analysis (reference value: 15.38 %); format: functional; parameters: scale not given: the % may be the effect or the level left
NCI-H2228 [20] = assay: Induction of cell cycle arrest in human NCI-H2228 cells assessed as decrease in S phase cells at 50 nM incubated for 48 hrs by PI/RNase staining based flow cytometry analysis (reference value: 34.90 %); format: functional; parameters: scale not given: the % may be the effect or the level left
NCI-H2228 [21] = assay: Induction of cell cycle arrest in human NCI-H2228 cells assessed as decrease in G2 phase cells at 50 nM incubated for 48 hrs by PI/RNase staining based flow cytometry analysis (reference value: 15.38 %); format: functional; parameters: scale not given: the % may be the effect or the level left
NCI-H2228 [22] = assay: Induction of cell cycle arrest in human NCI-H2228 cells assessed as decrease in S phase cells at 100 nM incubated for 48 hrs by PI/RNase staining based flow cytometry analysis (reference value: 34.90 %); format: functional; parameters: scale not given: the % may be the effect or the level left
[23] = Half-life in Sprague-Dawley rat at 10 mg/kg, po by LC-MS/MS analysis; format: ADME, organism-based; conditions: in vivo
[24] = AUC (0 to t) in Sprague-Dawley rat at 10 mg/kg, po by LC-MS/MS analysis; format: ADME, organism-based; parameters: dose 10 mg/kg, route po; conditions: in vivo
[25] = AUC (0 to t) in Sprague-Dawley rat at 2 mg/kg, iv by LC-MS/MS analysis; format: ADME, organism-based; parameters: dose 2 mg/kg, route iv; conditions: in vivo
[26] = AUC (0 to infinity) in Sprague-Dawley rat at 10 mg/kg, po by LC-MS/MS analysis; format: ADME, organism-based; parameters: time infinity, dose 10 mg/kg, route po; conditions: in vivo
[27] = AUC (0 to infinity) in Sprague-Dawley rat at 2 mg/kg, iv by LC-MS/MS analysis; format: ADME, organism-based; parameters: time infinity, dose 2 mg/kg, route iv; conditions: in vivo
[28] = Clearance in Sprague-Dawley rat at 2 mg/kg, iv by LC-MS/MS analysis; format: ADME, organism-based; conditions: in vivo
[29] = MRT in Sprague-Dawley rat at 10 mg/kg, po by LC-MS/MS analysis; format: ADME, organism-based; conditions: in vivo
[30] = MRT in Sprague-Dawley rat at 2 mg/kg, iv by LC-MS/MS analysis; format: ADME, organism-based; conditions: in vivo
NCI-H2228 [31] = assay: Antitumor activity against human NCI-H2228 cells xenografted in BALB/c nude mouse assessed as tumor growth inhibition at 50 mg/kg, IG administered every 2 days for 7 times relative to control; format: functional; conditions: NCI-H2228, po, 336 h, time 14 day, read-out: TGI
[32] = Toxicity in BALB/c nude mouse xenografted with human NCI-H2228 cells assessed as effect on body weight at 25 to 50 mg/kg, IG administered every 2 days for 7 times; format: organism-based; conditions: in vivo, po, 48 h, dose 25-50 mg/kg, time 2 day
HCT-116 = assay: cells; conditions: Homo sapiens, HCT-116, 72 h
Description: Antiproliferative activity against human HCT-116 cells assessed as inhibition of cell growth incubated for 72 hrs by MTT assay

Work on CNC(=O)c1ccccc1Nc1nc(Nc2ccc3c(C(=O)N(C)C)c(C)[nH]c3c2)ncc1Cl yielded an IC50 (KARPAS-299) of 0.011 µM, an IC50 (NCI-H2228 [1]) of 0.037 µM and an IC50 [2] of 0.0023 µM. The IC50 [3] was 0.021 µM, the IC50 (BaF3) was greater than 1 µM and the “Ratio IC50” value [4] was 61. For the same compound, the IC50 (PC-3) was 1.38 µM, the IC50 at 72 h [5] was greater than 10 µM and the inhibition [6] was “Dde”. The inhibition [7] was “Dde”, the inhibition (NCI-H2228 [8]) was “Dde” and the inhibition at 0.1 µM (NCI-H2228 [9]) was 100%. For the same compound, the inhibition (NCI-H2228 [10]) was “Tde”, the inhibition at 0.01 µM (NCI-H2228 [11]) was 4.5% and the Activity (NCI-H2228 [12]) was “Active”. The Activity (NCI-H2228 [13]) was “Active”, the Activity (NCI-H2228 [14]) was “Active” and the viability at 0.1 µM (NCI-H2228 [15]) was 68.6%. It also gave an Activity (NCI-H2228 [16]) of 1.71%, an Activity (NCI-H2228 [17]) of 14.23% and an Activity (NCI-H2228 [18]) of 53.03%. For the same compound, the Activity (NCI-H2228 [19]) was 12.23%, the Activity (NCI-H2228 [20]) was 32.28% and the Activity (NCI-H2228 [21]) was 13.28%. It also gave an Activity (NCI-H2228 [22]) of 29.32%, a half-life [23] of 4.1 h and an AUC(0-t) [24] of 1720 ng·h/mL. For the same compound, the AUC(0-t) [25] was 879 ng·h/mL, the AUC(0-inf) [26] was 1760 ng·h/mL and the AUC(0-inf) [27] was 922 ng·h/mL. It also gave a clearance [28] of 36.2 mL/min/kg, an MRT [29] of 6.6 h and an MRT [30] of 3.5 h. For the same compound, the inhibition in vivo at 50 mg/kg (NCI-H2228 [31]) was 93.5%, the Activity [32] was “Non-Toxic” and the IC50 (HCT-116) was 1.34 µM.
